Measured values: US11884649B2, “IRE1α inhibitors and uses thereof” (The Regents of the University of California, priority 2020, dated 2024)

Tests used:
Format in all cases: cell-based, rat
IRE1α = molecular target: T1, IRE1α (Mus musculus, UniProt Q9EQY0); assay: IRE1α autophosphorylation by Phos-tag SDS-PAGE in INS-1 cells expressing IRE1α under Dox control; conditions: various concentrations, 5 ng/mL Dox
T1 construct: expressed in transfected cells
Experimental: We next tested PAIR1 and KIRA9 in an INS-1 rat insulinoma stable cell line where IRE1α activation can be achieved through conditional overexpression of a mouse IRE1α transgene (Han et al., 2009).
Treatment Conditions for Phostag Gels
INS-1 or IRE1α-overexpressing isogenic INS-1 cells were plated onto a 24-well Poly-D-Lysine coated tissue culture plate and grown for 48 hrs. Inhibitor or DMSO were added to the media and incubated for 1 hour at 37° C. with 5% CO2 prior to addition of ER stress agents. […] Cells were lysed directly into SDS loading buffer (50 mM Tris, 100 mM DTT, 2% SDS (w/v), 10% glycerol (v/v), and 0.1% bromophenol blue (w/v), pH 6.8) and boiled for five minutes prior to gel loading.
Phostag Acrylamide Gel Procedure
A phostag acrylamide gel recipe used to resolve phosphorylation of IRE1α has been previously established and this recipe was followed verbatim for this study.^91 Resolving gels were allowed to solidify (˜1.5 hr) before adding the stacking gel and comb and allowed to solidify (˜1 hr). Gels were run using Tris-Glycine-SDS running buffer (25 mM Tris, 192 mM glycine, 0.1% SDS, pH 8.3) at 100 V for 3-3.5 hours. After the gels have ran, they were transferred onto nitrocellulose paper via rapid transfer using a Transblot Turbo and premade transfer packs. Gels were transferred at 25 V, 2.5 A for 15 minutes. […]

[1] = system: RIDD (IRE1α-dependent mRNA decay); assay: RIDD (Blos1 mRNA) in ER-stressed INS-1 cells; conditions: 2 mM DTT, 20 μM compound
Experimental: RNA Isolation, Quantitative Real-Time PCR, and Primers
INS-1 or isogenic IRE1α-overexpressing INS-1 cells were plated onto Poly-D-Lysine coated tissue culture plate and grown for 48 hrs. Inhibitors or DMSO were added to the media and incubated for 1 hour at 37° C. with 5% CO2 prior to addition of ER stress agents or Dox as indicated. RNA was isolated from whole cells using either QIAGEN RNeasy Mini kits or Trizol (Invitrogen) and reverse transcribed as above to obtain total cDNA. Then, XBP-1 primers were used to amplify an XBP-1 amplicon spanning the 26 nt intron from the cDNA samples in a regular 3-step PCR. Thermal cycles were: 5 min at 95° C., 30 cycles of 30 s at 95° C., 30 s at 60° C., and 1 min at 72° C., followed by 72° C. for 15 min, and hold at 4° C. Primers used for XBP-1 mRNA splicing were as follows: sense primer XBP1.3 S (5′ […]-3′ (SEQ ID NO:2)) and antisense primer XBP1.2AS (5′-[…]-3′ (SEQ ID NO:3)). PCR fragments were then digested by PstI, resolved on 3% agarose gels, stained with EtBr and quantified by densitometry using ImageJ (NIH). For standard mRNA detection, generally […] total RNA was reverse transcribed using the QuantiTect Reverse Transcription Kit (QIAGEN). For qPCR, we used SYBR green (QIAGEN) and StepOnePlus Real-Time PCR System (Applied Biosystems). Thermal cycles were: 5 min at 95° C., 40 cycles of 15 sec at 95° C., 30 sec at 60° C. […]

[2] = system: INS-1 cells expressing IRE1α under Dox control; assay: RNA-Seq profiling of INS-1 cells conditionally overexpressing IRE1α; conditions: 20 μM, 5 ng/mL Dox
Experimental: Next, to systematically compare the transcriptomic effects of PAIR1 and KIRA9, we profiled INS-1 cells that conditionally overexpress IRE1α by RNA Seq. As above (FIGS. 4A-4K), IRE1α overexpression was induced with doxycycline (Dox) and cells were treated with either DMSO, or equivalent concentrations of PAIR1 or KIRA9. Total RNA was submitted for sequencing across entire transcripts. The dense coverage of this dataset enabled us to distinguish the endogenous rat IRE1α expression from the induced mouse IRE1α transgene; there was greater than 10-fold induction of transgene expression with doxycycline (FIG. 22). Dense coverage across the Xbp1 locus also enabled quantification of XBP1 splicing based on the reduced density of reads mapping to the noncanonical XBP1 intron. Consistent with measurements of XBP1 splicing by isoform-specific PCR (FIG. 4C), overexpression induced XBP1 splicing was preserved in both DMSO and PAIR1-treated cells, but blocked in KIRA9-treated cells at 4 hours (FIGS. 23A-23B).
RNA Isolation and Preparation
Isogenic IRE1α-overexpressing INS-1 cells were pre-treated with inhibitors for 1 h followed by addition of Dox 5 ng/mL for 4 h and 24 h as indicated. All conditions for RNAseq analysis were performed in three biological replicates. RNA was isolated from whole cells using Qiagen RNeasy with gDNA eliminator kit. RNA purity was determined using a NanaPhotometer spectrometer (IMPLEN, CA, USA). RNA integrity and quantitation were assessed using the RNA Nano 6000 Assay Kit of the Bioanalyzer 2100 system (Agilent Technologies, CA, USA).
Quantification of Gene Expression Level
HTSeq v0.6.1 was used to count the reads numbers mapped to each gene. And then FPKM of each gene was calculated based on the length of the gene and reads count mapped to this gene.
Differential Expression Analysis
Differential expression analysis of two conditions/groups (three biological replicates per condition) was performed using the DESeq R package (1.18.0). DESeq provide statistical routines for determining differential expression in digital gene expression data using a model based on the negative binomial distribution. The resulting P-values were adjusted using the Benjamini and Hochberg's approach for controlling the false discovery rate. Genes with an adjusted P-value<0.05 found by DESeq were assigned as differentially expressed.

T1 sequence (Q9EQY0 21-977): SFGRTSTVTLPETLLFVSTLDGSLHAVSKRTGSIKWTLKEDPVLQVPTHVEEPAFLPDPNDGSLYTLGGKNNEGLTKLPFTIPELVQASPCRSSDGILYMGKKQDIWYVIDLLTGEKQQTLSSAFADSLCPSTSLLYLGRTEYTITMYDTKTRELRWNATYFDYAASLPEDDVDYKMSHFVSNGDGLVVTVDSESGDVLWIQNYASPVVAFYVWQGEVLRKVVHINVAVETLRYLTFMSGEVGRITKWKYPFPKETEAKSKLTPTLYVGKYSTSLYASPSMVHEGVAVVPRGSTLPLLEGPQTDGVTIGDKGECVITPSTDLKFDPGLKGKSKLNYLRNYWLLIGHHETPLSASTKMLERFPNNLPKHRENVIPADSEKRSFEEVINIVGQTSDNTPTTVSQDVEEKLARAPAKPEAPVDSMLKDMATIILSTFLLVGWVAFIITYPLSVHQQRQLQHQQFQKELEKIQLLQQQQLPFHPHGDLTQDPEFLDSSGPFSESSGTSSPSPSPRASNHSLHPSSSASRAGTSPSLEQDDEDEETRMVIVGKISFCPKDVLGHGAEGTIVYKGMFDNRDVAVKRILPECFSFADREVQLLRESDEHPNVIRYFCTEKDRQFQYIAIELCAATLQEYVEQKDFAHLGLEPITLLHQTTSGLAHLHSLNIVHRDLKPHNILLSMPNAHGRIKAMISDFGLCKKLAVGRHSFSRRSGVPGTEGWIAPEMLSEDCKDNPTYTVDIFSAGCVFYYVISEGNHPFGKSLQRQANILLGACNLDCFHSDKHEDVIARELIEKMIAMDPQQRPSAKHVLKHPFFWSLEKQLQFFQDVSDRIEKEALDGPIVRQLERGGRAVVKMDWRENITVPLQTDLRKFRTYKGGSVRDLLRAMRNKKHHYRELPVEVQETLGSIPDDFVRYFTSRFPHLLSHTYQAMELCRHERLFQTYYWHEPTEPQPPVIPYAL

## O=S(=O)(CCC(F)(F)F)Nc1ccc(Oc2ncccc2-c2ccnc(NC3CCCNC3)n2)c2ccccc12 (stereo not shown) [KIRA9, 3,3,3-trifluoro-N-(4-(3-(2-(piperidin-3-ylamino)pyrimidin-4-yl)pyridin-2-yloxy)naphthalen-1-yl)propane-1-sulfonamide]
IRE1α
  IRE1α autophosphorylation: equivalently block the autophosphorylation
[1]
  RIDD (Blos1 mRNA): equivalently blunt RIDD
[2]
  TXNIP upregulation: blocked
  downregulation of RIDD genes: antagonized
  global decrease of secretome transcripts: blocked
  upregulation of apoptosis genes: largely blunted
[2]; 4 hours
  XBP1 splicing (read coverage): blocked
[2]; 24 hours
  XBP1 splicing (read coverage): partially decreased

## O=S(=O)(CC(F)(F)F)Nc1ccc(Oc2ncccc2-c2ccnc(N[C@H]3CCCNC3)n2)c2ccccc12 (stereo in doubt) [PAIR1, 2,2,2-trifluoro-N-(4-(3-(2-(piperidin-3-ylamino)pyrimidin-4-yl)pyridin-2-yloxy)naphthalen-1-yl)ethanesulfonamide]
IRE1α
  IRE1α autophosphorylation: equivalently block the autophosphorylation
[1]
  RIDD (Blos1 mRNA): equivalently blunt RIDD
[2]
  TXNIP upregulation: blocked
  downregulation of RIDD genes: antagonized
  global decrease of secretome transcripts: blocked
  upregulation of apoptosis genes: largely blunted
[2]; 4 hours
  XBP1 splicing (read coverage): preserved
[2]; 24 hours
  XBP1 splicing (read coverage): preserved
